# Experimental data taken from the supplement of paper PMC11208160.
# Experiment: recombinant UMI read abundance after kanamycin selection (control-corrected) (log10(CPM+1)); higher = more efficient recombination; extreme values may be limits of the assay; sequences stand for … in AGTGCAGAGAAAATCGGCCAGTTTTCTCTGCCTGCAGTCCGCATGCCGTGGGACCCCTTGGGTTCTAACCTGTTGCCTAGATTTATGCAGCGGACTGCCTTTCTCCCAAAGTGATAAACCGG…AGGTTGGTTTCACT; site = the 11-nt donor
# How it was run: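 Counts of recombinant UMIs were reported as log10(CPM+1). Before that, they were converted to CPM, averaged over replicates and scaled using control-derived factors. They came from PCR across the donor–target junction after Escherichia coli carrying the pair library and target plasmid was plated on IPTG (0.07 mM) plus kanamycin, or unselected, in two replicates each.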
# 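Note: IS621 bridge recombinase in Escherichia coli cells against a fixed T5 target plasmid.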
row,Sequence,recombinant UMI read abundance (log10)
1,GTTCCAACATGGACCGGTTTTCCCGGTAATCCGTATTTGTA (site GGTCCAACTTA),0.0991
2,GTTCCAACATGGACCGGTTTTCCCGGTAATCCGTATTTGTA (site GTTCCAACTTA),0.437
3,GTTCCTACATGGACCGGTTTTCCCGGTAATCCGTATTTGCT (site GTTCCTACTAG),0.774
4,GTTCGAACATGGACCGGTTTTCCCGGTAATCCGTATTTGGC (site GTTAGAACTGC),0
5,GTTCGAACATGGACCGGTTTTCCCGGTAATCCGTATTTGGC (site GTTCGAACTGC),0.869
6,GTTCGAACATGGACCGGTTTTCCCGGTAATCCGTATTTGGC (site GTTGGAACTGC),0
7,GTTCGAACATGGACCGGTTTTCCCGGTAATCCGTATTTGGC (site GTTTGAACTGC),0
8,GTTCGACCATGGACCGGTTTTCCCGGTAATCCGTATTTGTG (site GTTCGACCTCA),0.0309
9,GTTCGAGCATGGACCGGTTTTCCCGGTAATCCGTATTTGCA (site ATTCGAGCTTG),1.31
10,GTTCGAGCATGGACCGGTTTTCCCGGTAATCCGTATTTGCA (site CTTCGAGCTTG),0.898
11,GTTCGAGCATGGACCGGTTTTCCCGGTAATCCGTATTTGCA (site GATCGAGCTTG),0.258
12,GTTCGAGCATGGACCGGTTTTCCCGGTAATCCGTATTTGCA (site GCTCGAGCTTG),1.25
13,GTTCGAGCATGGACCGGTTTTCCCGGTAATCCGTATTTGCA (site GGTCGAGCTTG),0.00484
14,GTTCGAGCATGGACCGGTTTTCCCGGTAATCCGTATTTGCA (site GTACGAGCTTG),1.97
15,GTTCGAGCATGGACCGGTTTTCCCGGTAATCCGTATTTGCA (site GTCCGAGCTTG),1.29
16,GTTCGAGCATGGACCGGTTTTCCCGGTAATCCGTATTTGCA (site GTGCGAGCTTG),0.215
17,GTTCGAGCATGGACCGGTTTTCCCGGTAATCCGTATTTGCA (site GTTAGAGCTTG),0.651
18,GTTCGAGCATGGACCGGTTTTCCCGGTAATCCGTATTTGCA (site GTTCAAGCTTG),1.8
19,GTTCGAGCATGGACCGGTTTTCCCGGTAATCCGTATTTGCA (site GTTCCAGCTTG),0.541

row,Sequence,recombinant UMI read abundance (log10)
1,GTTCGAGCATGGACCGGTTTTCCCGGTAATCCGTATTTGCA (site GTTCGAACTTG),0.806
2,GTTCGAGCATGGACCGGTTTTCCCGGTAATCCGTATTTGCA (site GTTCGACCTTG),0.0101
3,GTTCGAGCATGGACCGGTTTTCCCGGTAATCCGTATTTGCA (site GTTCGAGCTAG),0
4,GTTCGAGCATGGACCGGTTTTCCCGGTAATCCGTATTTGCA (site GTTCGAGCTCG),0.461
5,GTTCGAGCATGGACCGGTTTTCCCGGTAATCCGTATTTGCA (site GTTCGAGCTGG),0.789
6,GTTCGAGCATGGACCGGTTTTCCCGGTAATCCGTATTTGCA (site GTTCGAGCTTA),1.19
7,GTTCGAGCATGGACCGGTTTTCCCGGTAATCCGTATTTGCA (site GTTCGAGCTTC),0.0558
8,GTTCGAGCATGGACCGGTTTTCCCGGTAATCCGTATTTGCA (site GTTCGAGCTTG),2.44
9,GTTCGAGCATGGACCGGTTTTCCCGGTAATCCGTATTTGCA (site GTTCGAGCTTT),0.391
10,GTTCGAGCATGGACCGGTTTTCCCGGTAATCCGTATTTGCA (site GTTCGATCTTG),1.09
11,GTTCGAGCATGGACCGGTTTTCCCGGTAATCCGTATTTGCA (site GTTCGCGCTTG),0.00631
12,GTTCGAGCATGGACCGGTTTTCCCGGTAATCCGTATTTGCA (site GTTCGGGCTTG),1
13,GTTCGAGCATGGACCGGTTTTCCCGGTAATCCGTATTTGCA (site GTTCGTGCTTG),0.477
14,GTTCGAGCATGGACCGGTTTTCCCGGTAATCCGTATTTGCA (site GTTCTAGCTTG),0.494
15,GTTCGAGCATGGACCGGTTTTCCCGGTAATCCGTATTTGCA (site GTTGGAGCTTG),0.345
16,GTTCGAGCATGGACCGGTTTTCCCGGTAATCCGTATTTGCA (site GTTTGAGCTTG),0.607
17,GTTCGAGCATGGACCGGTTTTCCCGGTAATCCGTATTTGCA (site TTTCGAGCTTG),0.829
18,GTTCGAGCATGGACCGGTTTTCCCGGTAATCCGTATTTGCC (site GTTCGAGCTAG),0.379
19,GTTCGAGCATGGACCGGTTTTCCCGGTAATCCGTATTTGCC (site GTTCGAGCTCG),0.00775

row,Sequence,recombinant UMI read abundance (log10)
1,GTTCGAGCATGGACCGGTTTTCCCGGTAATCCGTATTTGCC (site GTTCGAGCTGG),1.42
2,GTTCGAGCATGGACCGGTTTTCCCGGTAATCCGTATTTGCC (site GTTCGAGCTTG),0.317
3,GTTCGAGCATGGACCGGTTTTCCCGGTAATCCGTATTTGGG (site GTTCGAGCTCC),0.00765
4,GTTCGGCCATGGACCGGTTTTCCCGGTAATCCGTATTTGGT (site GTTCGGCCTAC),0.00718
5,GTTCTATCATGGACCGGTTTTCCCGGTAATCCGTATTTGTG (site GTTCTATCTCA),1.02
6,GTTCTCACATGGACCGGTTTTCCCGGTAATCCGTATTTGGT (site GTTCTCACTAC),0.234
7,GTTGCGGCATGGACCGGTTTTCCCGGTAATCCGTATTTGCT (site ATTGCGGCTAG),1.03
8,GTTGCGGCATGGACCGGTTTTCCCGGTAATCCGTATTTGCT (site CTTGCGGCTAG),0.745
9,GTTGCGGCATGGACCGGTTTTCCCGGTAATCCGTATTTGCT (site GTTGCGGCTAG),1.49
10,GTTGCGGCATGGACCGGTTTTCCCGGTAATCCGTATTTGCT (site TTTGCGGCTAG),0.731
11,GTTGGAACATGGACCGGTTTTCCCGGTAATCCGTATTTGCC (site GTTGGAACTGG),2.34
12,GTTGGAACATGGACCGGTTTTCCCGGTAATCCGTATTTGTT (site GTTGGAACTAA),2
13,GTTGGTACATGGACCGGTTTTCCCGGTAATCCGTATTTGAC (site GTAGGTACTGT),1.9
14,GTTGGTACATGGACCGGTTTTCCCGGTAATCCGTATTTGAC (site GTCGGTACTGT),2.31
15,GTTGGTACATGGACCGGTTTTCCCGGTAATCCGTATTTGAC (site GTGGGTACTGT),0
16,GTTGGTACATGGACCGGTTTTCCCGGTAATCCGTATTTGAC (site GTTGGTACTGT),2.36
17,GTTGTTACATGGACCGGTTTTCCCGGTAATCCGTATTTGCA (site GTTGTTACTTG),2.25
18,GTTGTTGCATGGACCGGTTTTCCCGGTAATCCGTATTTGGT (site GTTGTTACTAC),0.375
19,GTTGTTGCATGGACCGGTTTTCCCGGTAATCCGTATTTGGT (site GTTGTTCCTAC),0.00209
